The text below walks through data of ChEMBL document CHEMBL3785028 (J Med Chem, 2016).

Common to all, as to format: ADME, organism-based
Common to all, as to conditions: in vivo

Data set [1] is described as follows: Half life in rat at 2 mg/kg, po.
Data set [2] in a line: AUC in rat at 2 mg/kg, po.
Data set [3] can be described thus: Cmax in rat at 2 mg/kg, po. More on the design: dose 2 mg/kg, route oral.
Data set [4] in a line: Half life in rat at 1 mg/kg, iv.
A short description of data set [5]: Volume of distribution in rat at 1 mg/kg, iv.
Data set [6] can be described thus: Half life in mouse at 30 mg/kg, po.
Data set [7] can be described thus: Oral bioavailability in rat at 2 mg/kg.
Data set [8] is described as follows: AUC(0 to infinity) in mouse at 30 mg/kg, po. More on the design: dose 30 mg/kg, route oral, time infinity.
A short description of data set [9]: Clearance in rat at 1 mg/kg, iv.

What is called half-life is how long it takes for the measured level to halve. A low value points to fast loss. For orientation: AUC means the area under the concentration-time curve, a measure of exposure. A higher AUC goes with more exposure. Broadly, the Cmax is the highest concentration seen after dosing. The compound `O=C(N[C@H]1COc2ccccc2NC1=O)c1cc(Cc2ccccc2)on1` had a half-life in data set [1] of 2.9 h. This compound had an AUC in [2] of 2200 ng·h/mL. This compound also showed a Cmax in data set [3] of 810 ng/mL.
As a reminder, the Vd is a proportionality between amount in the body and measured concentration, not a real space. Read a high Vd as wide distribution into tissue. In general, bioavailability refers to dose-corrected exposure relative to a reference, in per cent. A lower bioavailability goes with poor availability. The AUC(0-inf) is total exposure, with the tail of the curve extrapolated. By clearance is commonly meant the volume of plasma or blood freed of the substance per unit of time. High values mean efficient removal, low ones inefficient removal. Consider `CN1C(=O)[C@@H](NC(=O)c2cc(Cc3ccccc3)on2)CNc2ccccc21`, for which the results for the half-life in [1], in [4] and in [6] were 1.9 h, 0.85 h and 1.5 h, respectively. The same compound gave a Vd in data set [5] of 2.2 L/kg. In data set [7], this compound registered a bioavailability of 75%. Moreover, the AUC(0-inf) in data set [8] amounted to 2000 ng·h/mL. In data set [9], this compound returned a clearance of 57 mL/min/kg.
